“Also recorded” adds a separate entry of the source.
Test: Binding to phosphatidylinositol beads (PIP beads), biotinylated peptide detected with streptavidin-HRP/TMB
Settings: biotinylated peptide at final concentration of 100 μM, two hours at room temperature, absorbance 595 nm
Method: Sedimented suspensions of PIP beads™ were obtained from Molecular Probes. The beads are supplied as 10 nanomoles of bound phosphoinositide per milliliter of sedimented suspension. PIP beads were pelleted by centrifugation at low speed in a Beckman Coulter Microfuge. Pelleted beads were washed in wash-binding buffer (0.5% NP-40 in phosphate-buffered saline, 1 ml, 3×5 minutes) and centrifuged at low speed following each wash. After washing, pelleted beads were resuspended in an equal volume of Wash/Binding buffer. 100 μl of bead suspension was used for each binding reaction. Biotinylated chlorotoxin was diluted in wash-binding buffer, added to each phosphatidylinositol bead suspension at a final concentration of 100 μM and allowed to incubate for two hours at room temperature. Following incubation with chlorotoxin, the bead suspensions were washed in Wash/Binding buffer (1 ml, 3×5 minutes) and centrifuged at low speed after each wash. Streptavidin horseradish peroxidase (Vector Labs) was diluted 1:1000 in wash-binding buffer, 100 μl of this solution was added to each of the phosphatidylinositol bead suspensions, and allowed to incubate […] at room temperature. Following incubation with streptavidin, bead suspensions were washed thoroughly in Wash/Binding buffer (1 ml, 5×10 minutes) and centrifuged at low speed after each wash. Immediately prior to use, a 1:1 mixture of TMB substrate (Pierce) was prepared, 100 μl of this solution was added to each reaction, and allowed to incubate at room temperature for up to thirty minutes. After incubation with substrate, bead suspensions were pelleted by centrifugation, supernatants were transferred to a 96-well plate and absorbance (λ=595 nm) was obtained using BioRad microplate reader and microplate manager software.
In order to confirm the identify of the minimal binding sequences within the alpha and beta peptides, each of the two peptides was incubated with different species of phosphatidylinositols as set forth in Example 1.

Row | Substance | binding to different species of phosphatidylinositols
1 | KGRGKSY [beta-domain peptide] | binds to multiple species of phosphatidylinositols; also recorded: bound to all of the same species of phosphatidylinositols as did chlorotoxin
2 | TDHQMAR [alpha-domain peptide] | no binding activity
3 | chlorotoxin | binding of chlorotoxin to different phosphatidylinositols

— patent publication US20070275902A1, “Treatment of Phosphatidylinositol Phospholipid Disorders” (TRANSMOLECULAR, INC., priority 2003, published 2007)
